According to PubChem BioAssay (NCI):
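Cultured in 96-well plates, cells were exposed to test compound for 48 hours across five concentrations. TGI denotes the concentration required for complete inhibition of growth.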

What was measured:
Assay in all cases: NCI-60 cell line screen, 48 h
786-0 renal = tested on: 786-0 renal
A498 renal = tested on: A498 renal
A549 NSCLC = tested on: A549 NSCLC
ACHN renal = tested on: ACHN renal
BT-549 breast = tested on: BT-549 breast
CAKI-1 renal = tested on: CAKI-1 renal
CCRF-CEM leukemia = tested on: CCRF-CEM leukemia
COLO 205 colon = tested on: COLO 205 colon
DU-145 prostate = tested on: DU-145 prostate
EKVX NSCLC = tested on: EKVX NSCLC
HCC-2998 colon = tested on: HCC-2998 colon
HCT-116 colon = tested on: HCT-116 colon
HCT-15 colon = tested on: HCT-15 colon
HL-60(TB) leukemia = tested on: HL-60(TB) leukemia
HOP-62 NSCLC = tested on: HOP-62 NSCLC
HS 578T breast = tested on: HS 578T breast
HT29 colon = tested on: HT29 colon
IGROV1 ovarian = tested on: IGROV1 ovarian
K-562 leukemia = tested on: K-562 leukemia
KM12 colon = tested on: KM12 colon
LOX IMVI melanoma = tested on: LOX IMVI melanoma
M14 melanoma = tested on: M14 melanoma
MALME-3M melanoma = tested on: MALME-3M melanoma
MCF7 breast = tested on: MCF7 breast
MDA-MB-231 breast = tested on: MDA-MB-231 breast
MDA-MB-435 = tested on: MDA-MB-435
MDA-N = tested on: MDA-N
MOLT-4 leukemia = tested on: MOLT-4 leukemia
NCI-H226 lung = tested on: NCI-H226 lung
NCI-H23 lung = tested on: NCI-H23 lung
NCI-H460 lung = tested on: NCI-H460 lung
OVCAR-3 ovarian = tested on: OVCAR-3 ovarian
OVCAR-4 ovarian = tested on: OVCAR-4 ovarian
OVCAR-5 ovarian = tested on: OVCAR-5 ovarian
OVCAR-8 ovarian = tested on: OVCAR-8 ovarian
PC-3 prostate = tested on: PC-3 prostate
RPMI-8226 leukemia = tested on: RPMI-8226 leukemia
RXF 393 renal = tested on: RXF 393 renal
SF-268 CNS = tested on: SF-268 CNS
SF-295 CNS = tested on: SF-295 CNS
SF-539 CNS = tested on: SF-539 CNS
SK-MEL-2 melanoma = tested on: SK-MEL-2 melanoma
SK-MEL-28 melanoma = tested on: SK-MEL-28 melanoma
SK-MEL-5 melanoma = tested on: SK-MEL-5 melanoma
SN12C renal = tested on: SN12C renal
SNB-19 CNS = tested on: SNB-19 CNS
SNB-75 CNS = tested on: SNB-75 CNS
SR leukemia = tested on: SR leukemia
SW-620 colon = tested on: SW-620 colon
T-47D breast = tested on: T-47D breast
TK-10 renal = tested on: TK-10 renal
U251 CNS = tested on: U251 CNS
UACC-257 melanoma = tested on: UACC-257 melanoma
UACC-62 melanoma = tested on: UACC-62 melanoma
UO-31 renal = tested on: UO-31 renal
HOP-92 NSCLC = tested on: HOP-92 NSCLC
NCI-H522 lung = tested on: NCI-H522 lung
SK-OV-3 ovarian = tested on: SK-OV-3 ovarian

Measured: TGI

Cc1ncc([N+](=O)[O-])n1CCNC(=O)CCCn1ccnc1[N+](=O)[O-]
not listed: HOP-92 NSCLC | NCI-H522 lung | SK-OV-3 ovarian
> 100 µM: all other assays above

O=c1cc(-c2ccccc2)oc2cc(Oc3nnnn3-c3ccccc3)ccc12
9.17 µM: HOP-92 NSCLC
90.9 µM: UACC-257 melanoma
20.4 µM: CAKI-1 renal
97.3 µM: SK-MEL-2 melanoma
46 µM: MDA-MB-435
52.2 µM: SF-268 CNS
79.6 µM: A498 renal
13.9 µM: ACHN renal
79.7 µM: T-47D breast
42.4 µM: SK-MEL-5 melanoma
85.4 µM: SF-539 CNS
70.9 µM: OVCAR-4 ovarian
37.8 µM: MCF7 breast
33.1 µM: UO-31 renal
89.5 µM: HS 578T breast
41.4 µM: U251 CNS
52.1 µM: BT-549 breast
94.1 µM: DU-145 prostate
not listed: OVCAR-5 ovarian | RXF 393 renal | SNB-75 CNS
> 100 µM: all other assays above
